Experimental data published in patent US20070135378A1, “Method for the direct synthesis of oligorhamnosides, composition comprising oligorhamnosides and use thereof as a medicament” (priority 2003, published 2007).

Tests used:
[1] = tested on: dendritic cells; assay: Dendritic cell maturation (CD86 B7.2 expression, allergenic effect); type: cell-based, human; conditions: control substances, concentration not given
Description: Three groups of cells are analyzed: 1) those which have not been exposed to oligorhamnosides or the selected activation signals, which will be used as negative controls, 2) those which were incubated for 24 hours with the activation signals, which will be used as positive controls, and 3) those which had been in contact with the oligorhamnosides for 24 hours. The culture medium used is a classical medium of type RPMI 1640 (Bioproducts), supplemented with 10% FCS, glutamine (2 mM) and the antibiotics penicillin and streptomycin (Bioproducts). The rinse liquid used is a PI buffer (Bioproducts). The cellular activator used is INFγ (SIGMA). The allergenic effect is reflected by the maturation of the dendritic cells and the expression of the CD86 B7.2 receptor. The more this receptor is expressed, the higher the proportion of mature cells and the more the rhamnosylated derivative studied has an allergenic effect.

[2] = tested on: dendritic cells; type: cell-based
Description: Viability is determined from the mortality translated directly by the proportion of PI signal.

[3] = tested on: LTB4 released by human neutrophilic leukocytes; assay: Assay of LTB4 released by human neutrophilic leukocytes; type: cell-based; conditions: stimulation buffer, 0.1 μM
Description: (§1) Neutrophils are isolated from normal human blood and purified by an original method. They are then activated by a stimulation buffer which causes the release of two types of lipid molecules, arachidonic acid derivatives, arising from the cyclooxygenase and lipoxygenase pathways, namely the leukotriene LTB4 and the prostaglandin PGE2. This stimulation buffer contains in particular Ca^2+ and Mg^2+ ions. These assays are carried out by means of an ELISA-type commercial assay kit.
The results represent the means of the values assayed in two supernatants of cells stimulated during the same experiment.

[4] = tested on: keratinocytes; assay: Toxicity test: viability of keratinocytes; type: cell-based; conditions: for % viability: vs control 100%
Text: 1) Principles of Cellular Viability Measurement Techniques • MTT [3-(4,5-[…])-2,5-diphenyl tetrazolium bromide] reduction technique (sold by Sigma).
This technique corresponds to a […] test allowing quantification of living, metabolically active cells in a non-radioactive manner. MTT is a cationic molecule which is bound to the membranes of mitochondria in a potential-dependant fashion. On the level of the mitochondria, MTT will be reduced to formazan blue by mitochondrial dehydrogenase. The living cells are thus colored blue, in contrast with the dead cells which remain transparent. The measure of viability is then carried out by measurement of the optical density using an automatic reader.
This method of analysis, however, seems to be better adapted for adherent cells (keratinocyte-type) than for non-adherent cells (monocytes and dendritic cells). Another study was thus envisaged to conclude on the cytotoxicity of the oligorhamnosides with respect to the differentiated cells analyzed, namely flow cytometry in the presence of propidium iodide. • XTT tetrazolium salt reduction technique.
This is a technique allowing quantification of cellular proliferation and of the number of living (metabolically active) cells, without the incorporation of radioactive isotopes. XTT, yellow in color, is a cationic molecule which is bound to the membranes of mitochondria in a potential-dependant fashion, as does MTT.
On the level of the mitochondria, XTT will be reduced to formazan (orange) by mitochondrial tetrazolium reductase. […] Indeed, the reduction product is soluble within the cell. The method is thus faster. Living cells, in the absence and presence of a treatment become colored, in contrast with dead cells which remain colorless. The level of formazan product is detected with the spectrophotometer at a wavelength of 450 nm and is directly proportional to the number of metabolically active cells.
2) Toxicity Tests • Keratinocytes were isolated and placed in culture from human skin biopsies. Measurements of optical density (absorbance) of the 4 wells treated with the same product concentration were averaged. This average was compared with the average of the measurements obtained for the 4 control wells (Student's t-test—comparison of means—significant difference at 95% if p<0.05 and 99% if p<0.01).
The viabilities of the treated cells are expressed as a percentage compared to the control (untreated cells) of 100% (OD treated/OD control×100).

[5] = tested on: 6-ketoPGF1α released by NHK; assay: Assay of prostaglandin 6-ketoPGF1α after stimulation of keratinocytes (ELISA); type: cell-based, human; conditions: for inhibition at 1 µM: Homo sapiens, Keratinocyte, 2 h
Description: Prostaglandin I2 (PGI2) is an unstable metabolite of the arachidonic acid degradation pathway. Like prostaglandin E2, it is a mediator of inflammation with vasodilatory properties. The instability of PGI2 lies in its rapid conversion (non-enzymatic hydration) to 6-keto prostaglandin F1α (6-ketoPG1α). It is thus this prostaglandin which is measured as a marker for PGI2 synthesis. PMA (phorbol-12-myristate-13-acetate) is an activator of protein kinase C. It is a non-physiological activator which mimics the effect of cytokines, including IL-1β on NHK, and encourages the cell to release a lipid molecule, the prostaglandin 6-ketoPGF1α. This prostaglandin is assayed by means of an ELISA. The two activators IL-1β and PMA are used. Indomethacin, an aspirin-type analgesic, is an anti-inflammatory drug (NSAID) which […]. It is used to inhibit the release of 6-ketoPGF1α. Two experiments were carried out. The first consists of pretreating the NHK with oligorhamnosides for 4 hours and then monitoring the stimulation for 2 hours in the presence of oligorhamnosides. A second experiment was carried out in which the pretreatment with oligorhamnosides was extended to 12 hours.

[6] = tested on: PGE2 released by human neutrophilic leukocytes; assay: Assay of PGE2 released by human neutrophilic leukocytes; type: cell-based
Description: as §1, with “kit. The results represent the means of the values assayed in two supernatants of cells stimulated during the same experiment.” for “kit.”

[7] = tested on: endothelial cells; assay: Cytotoxicity test (MTT) on endothelial cell lines; type: cell-based
Description: • Endothelial cells were placed in culture, immortalized and stabilized in their phenotype. The cell lines studied were appendix endothelial cells, brain microvascular endothelial cells, mesenteric lymphatic ganglia endothelial cells, peripheral lymphatic ganglia endothelial cells and skin microvascular endothelial cells.
The cytotoxicity test was carried out by means of a biochemical test on the transformation of a tetrazolium salt, MTT. […] Viability is indeed always greater than 85%, and this is true for all of the cells lines studied.

[8] = IL-1β stimulation 2 hours 1 ng/ml, 1 μM
[9] = PMA stimulation 2 hours 10 ng/ml, 1 μM

## C[S+](C)[O-] [DMSO control]
[1]
  CD86 B7.2 (Maturation): 0.17%
[2]
  Viability (propidium iodide, PI): 1.27%

## CC(Cc1ccc(O)c(O)c1)C(C)Cc1ccc(O)c(O)c1 (stereo not shown) [NDGA, nordihydroguaiaretic acid]
[3]
  % inhibition (LTB4 released): 73%
  LTB4 released, Stimulation: 684 ± 185 pg/mL

## C[C@H](O)[C@H](O)[C@@H](O)[C@@H](O)C=O [Rhamnose, rhamnose]
[4]; 0.001 mg/ml
  % viability: 95%
[4]; 0.01 mg/ml
  % viability: 100%
[4]; 0.1 mg/ml
  % viability: 98%
[4]; 1 mg/ml
  % viability: 104%
[4]; even for the highest concentrations
  cytotoxicity (in words): does not exhibit cytotoxicity

## COc1ccc2c(c1)c(CC(=O)O)c(C)n2C(=O)c1ccc(Cl)cc1 [indomethacin]
[5]; [8]
  inhibition at 1 µM: 17%
  Mean 6-ketoPGF1α: 22.6 ± 3.4 pg/ml/μg proteins
[5]; [9]
  inhibition at 1 µM: 37%
  Mean 6-ketoPGF1α: 20.9 ± 4.9 pg/ml/μg proteins
[5]; Table 7 experiment, IL-1β stimulation 2 hours 1 ng/ml, concentration not given
  Mean 6-ketoPGF1α: 22.6 ± 3.4 pg/ml/μg proteins
[6]; 1 μM
  PGE2 released, Without stimulation: 4.5 ± 0 pg/mL
[6]; Homo sapiens, Leukocyte, stimulation buffer
  inhibition at 1 µM: 69%
[6]; stimulation buffer, 1 μM
  PGE2 released, Stimulation: 6.8 ± 1 pg/mL

## CCCCCOC1O[C@@H](C)[C@H](O)[C@@H](O)[C@H]1O (stereo partly shown) [pentyl-rhamnoside]
[7]; all of the cell lines studied
  Viability: greater than 85%
[7]; endothelial cell lines
  toxicity (in words): no toxicity
